Data as given in patent US20250347696A1, “SELF-ACTIVATING FÖRSTER RESONANCE ENERGY TRANSFER (saFRET) BIOSENSORS AND METHODS FOR MAKING AND USING THEM” (The Regents of the University of California, priority 2021, published 2025).
Substitutions are numbered along the chain they refer to. “Also recorded” adds a separate entry of the source. Like-named read-outs stand apart in the source and are kept apart here. Blank lines part the entries; values can stand above or below the compound they belong to.

How the values were obtained:
ZAP70 kinase = biological target: T1, ZAP70 kinase (Homo sapiens, UniProt P43403); details: for inhibition of ZAP70 activity (FRET ratio change compared to solvent control): 10 μM, 40 minutes of incubation
T1 sequence (P43403 327-619): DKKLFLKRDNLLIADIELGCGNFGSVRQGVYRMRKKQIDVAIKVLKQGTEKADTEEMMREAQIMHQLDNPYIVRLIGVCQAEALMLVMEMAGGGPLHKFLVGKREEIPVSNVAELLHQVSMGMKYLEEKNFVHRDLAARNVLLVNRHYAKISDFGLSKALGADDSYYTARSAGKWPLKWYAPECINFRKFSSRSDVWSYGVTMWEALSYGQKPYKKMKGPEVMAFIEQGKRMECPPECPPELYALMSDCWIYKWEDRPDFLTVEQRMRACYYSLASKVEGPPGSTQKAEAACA
Protocol: (§1) We first screened a 96-member kinase inhibitor library to identify efficient inhibitors of ZAP70 kinase. […] After 40 minutes of incubation with inhibitors, the cells were imaged, and the FRET ratio changes of individual inhibitors compared to the solvent control were calculated to identify promising candidates after this primary endpoint screening (FIG. 5B-D). We further exploited a control biosensor with a kinase-dead domain (saFRETkd) for counter screening to eliminate false-positive hits due to auto-fluorescence or other non-specific effects^48.
• a, Schematics of the high throughput drug screening platform. First, the cells cultured in 96-well glass bottom plate were treated either with DMSO or inhibitors from the kinase inhibitor library. After 40 minutes of incubation, the cells were imaged, and the FRET ratio change compared to the control cell was calculated. […] Scale bars, 10 μm. • c, Summary of screening results. […] Error bars, mean±SD. • e, Counter screening using a mutant biosensor with a kinase-dead domain to subtract the noise engendered from non-specific fluorescence. […] Error bars, mean±SEM.
(§2) Firstly, we transfected HEK293 cells with optimized saFRET biosensor and established a stable cell line. […] HEK293 stable cell line was then cultured in 96 glass bottom wells for approximately 24 hours and then should be ready for high throughput screening (see FIG. 5A, Example 1). We tested this concept by screening an in house kinase inhibitor library (Cayman chemical inc.) and screened a […] kinase inhibitor library to identify efficient inhibitors of ZAP70 kinase. […] After 40 minutes of incubation with inhibitors, the cells were imaged, and the FRET ratio changes of individual inhibitors compared to the solvent control were calculated to identify promising candidates after this primary endpoint screening (see FIG. 5B-G, Example 1). We further exploited a control biosensor with a mutated-kinase dead domain (saFRETkd) for counter screening to eliminate false-positive hits due to auto-fluorescence or other non-specific effects (Simeonov and Davis 2004).

[1] = system: phosphorylated LAT (Y191); experiment: pLAT (Y191) immunostaining in Jurkat T cells after anti-CD3/CD28 stimulation; type: cell-based, human; details: inhibitor pre-treatment 30 minutes, anti-CD3/CD28 5 minutes
Protocol: (§3) We tested the phosphorylation of LAT, a downstream substrate of ZAP70 kinase, and the activation of T cells with the top two identified inhibitors, staurosporine and AZD7762.
(§4) • a, Experimental scheme and timeline for experiments in b-d. The Jurkat T cells were pre-treated with inhibitors for 30 minutes before anti-TCR stimulation by anti-CD3/CD28 antibodies for 5 minutes. • b, Immunostaining images of pLAT (Y191) in Jurkat T cells with different inhibitor pre-treatments. Scale bars, 10 μm. • c, Quantification of pLAT (Y191) intensity of single cells in different groups. (n>150 for each group, One-way ANOVA, ****P<0.0001). Error bars, mean±SD. • d, Quantification of pZAP70 (Y493) intensity of single cells in different groups. (n>200 for each group, One-way ANOVA, ****P<0.0001). […] P116 cells with similar ZAP70-WT or ZAP70-R360P expressions were sorted and isolated for further analysis based on YPet intensity. • h, CD69 expression in P116 cells with or without the expression of ZAP70 (WT) and its mutant (R360P). • i, Quantification of pZAP70 (Y493) intensity of single cells in different P116 groups. […] Scale bars, 10 μm. • k, Quantification of pLAT (Y191) intensity of single cells in P116-ZAP70 R360P cells with different inhibitor pre-treatment. […]

pZAP70 (Y493) [2] = experiment: pZAP70 (Y493) immunostaining in Jurkat T cells after anti-CD3/CD28 stimulation; type: cell-based, human; details: inhibitor pre-treatment 30 minutes, anti-CD3/CD28 5 minutes
Protocol: as §3, §4

CD69 expression [3] = experiment: CD69 expression by flow cytometry in T cells after anti-TCR stimulation; type: cell-based, human; details: inhibitor pre-treatment
Protocol: as §3, §4

pZAP70 (Y493) [4] = experiment: pZAP70 (Y493) in P116-ZAP70 R360P cells; type: cell-based, human; details: inhibitor pre-treatment
Description: (§5) To examine the efficacy of staurosporine and AZD7762 in inhibiting pathological T cell activation, we used a disease model where T cell activation is mediated by ZAP70-R360P mutation, a main cause of a severe human autoimmune syndrome^4. We introduced wild type ZAP70 or the R360P-mutant of ZAP70 into ZAP70-deficient P116 T cells (FIG. 6G). ZAP70-R360P led to enhanced T cell auto-activation compared to wild type ZAP70 (FIG. 6H).
as §4, with “(n>150 for each group, One-way ANOVA, ****P<0.0001).” left out, “groups.” for “groups. (n>200 for each group, One-way ANOVA, ****P<0.0001).”

pLAT (Y191) = pLAT (Y191) in P116-ZAP70 R360P cells; type: cell-based, human; details: inhibitor pre-treatment
Description: as §5
as §4, with “(n>150 for each group, One-way ANOVA, ****P<0.0001).” left out, “groups.” for “groups. (n>200 for each group, One-way ANOVA, ****P<0.0001).”

CD69 expression [5] = experiment: CD69 expression by flow cytometry in P116-ZAP70-R360P cells; type: cell-based, human; details: inhibitor pre-treatment
Description: as §5
as §4, with “(n>150 for each group, One-way ANOVA, ****P<0.0001).” left out, “groups.” for “groups. (n>200 for each group, One-way ANOVA, ****P<0.0001).”

[6] = biological target: T2, ZAP70 biosensor with kinase-dead domain (saFRETkd) (Homo sapiens, UniProt P43403, K369A); experiment: ZAP70 saFRET biosensor with kinase-dead domain (saFRETkd), control / counter screening; type: cell-based; details: for TAK-659-induced FRET response of ZAP70 saFRET biosensor with kinase-dead domain: kinase-dead (K369A) domain, HEK cells
T2 construct: kinase 327-619 (both KA and KM) was chosen for generating the Zap70 biosensor substrate libraries; expressed in transfected cells; host or cells: HEK cells
T2 sequence (P43403 327-619 K369A): T1 sequence (P43403 327-619) with K43A
Protocol: as §1, §2

[7] = biological target: T3, ZAP70 kinase domain (327-619) (Homo sapiens, UniProt P43403); experiment: ZAP70 saFRET biosensor live-cell FRET imaging in HEK cells; type: cell-based; details: TAK-659 25 μM
T3 construct: The combination of ZAP70 kinase domain (327-619) and a substrate from LATY191; expressed in transfected cells; host or cells: HEK cells
T3 sequence (P43403 327-619): T1 sequence (P43403 327-619)
Description: To extend FRET-seq as a general platform to optimize different kinase FRET biosensors in mammalian cells, we further applied this technology to improve the ZAP70 kinase FRET biosensor. […] Similar to the Fyn saFRET biosensor, the FRET change of ZAP70 saFRET biosensor was dominated by the active kinase domain, as evidenced by the observations that the TAK-659-induced dynamic changes (FIG. 3 b,c) and phosphorylation (Supplementary FIG. 5a, or FIG. 11A) were abolished when the kinase domain was replaced by its kinase-dead version (K369A)^41.
Using the established platform for library screening and sequencing, the ZAP70 biosensor candidates selected via the four-dimensional plot were further ranked by the product of Ev (KAH) and Ev (KDL) (FIG. 3D-E). […] The dynamic range of FRET ratio of the biosensors containing […] (SEQ ID NO:113) or […] (SEQ ID NO:114) increased approximately 50% comparing to the parental one, when transiently expressed in HEK cells (FIG. 3G-H). As such, our FRET-seq platform can serve as a general high-throughput approach to engineer FRET biosensor from libraries and develop sensitive kinase biosensors. […]
To increase the specificity of the selected substrates, library with mutated kinase were included. […] The variants which satisfied all conditions were selected (FIG. 3D, Example 1), and their FRET ratio change upon TAK-659 treatment were measured by fluorescence microscope. […]

Compound: NC(=O)Nc1cc(-c2cccc(F)c2)sc1C(=O)N[C@H]1CCCNC1 [AZD7762]
- inhibition of ZAP70 activity (FRET ratio change compared to solvent control) (ZAP70 kinase): effectively inhibit
- phosphorylated LAT (Y191) [1]: Significant reductions
- phosphorylated ZAP70 (Y493) (pZAP70 (Y493) [2]): Significant reductions
- expression of CD69 (CD69 expression [3]): suppressed
- phosphorylation of ZAP70 (pZAP70 (Y493) [4]): significantly inhibited
- phosphorylation of LAT (Y191) (pLAT (Y191)): significantly inhibited
- activation of T cells marked by CD69 (CD69 expression [5]): significantly inhibited

- FRET ratio change with saFRETkd in counter screening ([6]; 10 μM library inhibitors, kinase-dead biosensor): nonspecific reduction of FRET ratio
Compound: Cc1[nH]c(/C=C2\C(=O)Nc3ccc(S(=O)(=O)Cc4c(Cl)cccc4Cl)cc32)c(C)c1C(=O)N1CCC[C@@H]1CN1CCCC1 [PHA665752]

Compound: CC(C)(C)n1nc(-c2ccc(Cl)cc2)c2c(N)ncnc21 [PP2]
- FRET ratio response of ZAP70 saFRET biosensor (active kinase domain) to inhibitor [7]: not

Compound: CN[C@@H]1C[C@H]2O[C@@](C)([C@@H]1OC)n1c3ccccc3c3c4c(c5c6ccccc6n2c5c31)C(=O)NC4 [Staurosporine]
- inhibition of ZAP70 activity (FRET ratio change compared to solvent control) (ZAP70 kinase): effectively inhibit
- phosphorylated LAT (Y191) [1]: Significant reductions
- phosphorylated ZAP70 (Y493) (pZAP70 (Y493) [2]): Significant reductions
- expression of CD69 (CD69 expression [3]): suppressed
- phosphorylation of ZAP70 (pZAP70 (Y493) [4]): significantly inhibited
- phosphorylation of LAT (Y191) (pLAT (Y191)): significantly inhibited
- activation of T cells marked by CD69 (CD69 expression [5]): significantly inhibited

Compound: Cn1cc(-c2nc(N[C@@H]3CCCC[C@@H]3N)c(F)c3c2C(=O)NC3)cn1 [TAK-659]
- FRET ratio response of ZAP70 saFRET biosensor (active kinase domain) to inhibitor [7]: specifically responded; also recorded: significant FRET ratio change
- inhibition of ZAP70 activity (FRET ratio change compared to solvent control) (ZAP70 kinase; listed as TAK659): could not reduce the FRET ratio significantly
- average FRET ratio reduction (ZAP70 kinase; 25 μM, stable HEK cell line, ZAP70 saFRET biosensor): approximately 25%
- TAK-659-induced FRET response of ZAP70 saFRET biosensor with kinase-dead domain [6]: abolished; also recorded: did not show any response
- TAK-659-induced FRET response of ZAP70 saFRET biosensor with kinase-dead domain ([6]; listed as TAK659): no response

Compound: COc1ccc2cc(-c3nc(-c4ccc([S+](C)[O-])cc4)[nH]c3-c3ccncc3)ccc2c1 (stereo not shown) [Tie2 kinase inhibitor]
- inhibition of ZAP70 activity (FRET ratio change compared to solvent control) (ZAP70 kinase): effectively inhibit
